# Test results taken from patent US20070155673A1, “USE OF BVDU FOR INHIBITING THE GROWTH OF HYPERPROLIFERATIVE CELLS” (Celmed Oncology (USA), Inc., priority 1999, published 2007).
# What was measured:
# H630 R10 [1] = experiment: alamarBlue cytotoxicity assay; assay type: cell-based; conditions: for IC50: alamarBlue, drug exposure 120 hours, 5-FU resistant colon tumor cell line
# Description: (§1) alamarBlue cytotoxicity assay Tumor cells growing exponentially were transferred to 384 well flat bottom tissue culture plates. H630 R10 were plated at a density of 500 cells per well and MCF7 TDX at 250 cells/well in 25 μL of complete medium (RPMI 1640+10% fetal bovine serum+antibiotics/antimyotics). After 24 hours (day 0), 25 μL of complete medium containing the compounds (NB1011 or BVdU) over the dose range of 10^−3 to 10^−10 M were added in triplicate. Drug exposure time was 120 hours (day 5), after which growth inhibition was assayed. The redox indicator alamarBlue was added to each well at 10% (v/v). After 1-hour incubation at room temperature, fluorescence was monitored at 536 nm excitation and 595 nm emission. Concentration versus relative fluorescence units (RFU) was plotted, and sigmoid curves were fit using the Hill equation. IC50, indicated by the inflection point of the curve, is the concentration at which growth is inhibited by 50%.
# (§2) H630 R10 is a colon cancer tumor cell line selected for resistance to 5-FU, and overexpresses thymidylate synthase protein approximately 20-fold. MCF7 TDX is a breast tumor cell line selected with Tomudex, and overexpresses thymidylate synthase to approximately the same extent.
# MCF7 TDX [2] = experiment: alamarBlue cytotoxicity assay; assay type: cell-based; conditions: for IC50: alamarBlue
# Description: as §1, §2
# H630 R10 [3] = conditions: previously shown; cited from earlier work
# TKC HT1080 #5 = experiment: Sensitivity of thymidine kinase transfected HT1080 cell lines to BVdU; assay type: cell-based; conditions: Homo sapiens, HT-1080; TKC HT1080 #5, TK protein level 200 units
# Excerpt: (§3) Cell lines that overexpress human thymidine kinase (TK) are also more sensitive to BVdU, providing another criterion for identification of tumor susceptibility to BVdU.
# TKC HT1080 #22 = experiment: as above; assay type: cell-based; conditions: Homo sapiens, HT-1080; TKC HT1080 #22, TK protein level 400 units
# Excerpt: as §3
# PC HT1080 = experiment: as above; assay type: cell-based; conditions: Homo sapiens, HT-1080; PC HT1080, TK protein level 100 units
# Excerpt: as §3
# TS HT1080 #12 = experiment: Cyquant and crystal violet cytotoxicity; assay type: cell-based, human; conditions: for IC50: TS HT1080 #12, tumor - fibrosarcoma, high TS transfectant, 72 hour incubation; for normal/tumor IC50 ratio: normal IC50 = average of CCD18co and Det551
# Description: (§4) Cvquant and Crystal Violet Cytotoxicity Exponentially growing cells were transferred at a density of 1.0-4.0×10^3 cells per well to a 96-well tissue culture plate in growth medium (RPMI1640+10% FBS+antibiotics). Cells were allowed to attach for 24 hours in standard culture conditions (37° C., 5% CO2, 95% humidity). Experimental compounds were then applied in duplicate half log serial dilutions. After additional 72 hour incubation, surviving cells were stained with crystal violet (adherent cells) or Cyquant (semi or non—adherent cells). Absorbence or fluorescence, respectively, was monitored. IC50 values were derived from sigmoid curves fit according to the Hill inhibitory Emax model.
# Cell transfection. HT1080 cells were grown in RPMI1640 medium supplemented with 10% FBS, and transfected with TS expression vector. 48 hours later, transfected cells were trypsinized and replated in culture medium containing 750 μg/ml G418. After selection with G418 for two weeks, surviving cells were cloned. Clones with different TS levels were selected based on Western blot analysis, and expanded into cell lines. The stable HT1080 cells transfected with pcDNA3.1(−) only were used as control.
# (§5) The selectivity of a given antitumor agent can be assessed by comparing the IC50 for a tumor cell line to the IC50 of a normal cell strain growing under the same conditions, determined and Cyquant staining for non-adherent cells, and crystal violet staining for adherent cells. The selectivity is given here as the ratio of normal cell IC50 to tumor cell IC50. In this case, normal cell IC50 is defined as the average of the value for CCD18co and Det551 to allow for direct comparison of the established cancer drug 5-FU with BVdU.
# CCD18co = experiment: Cyquant and crystal violet cytotoxicity; assay type: cell-based; conditions: for IC50: CCD18co, normal colon epithelium, 72 hour incubation
# Description: as §4, §5
# H630-R10 = experiment: Cyquant and crystal violet cytotoxicity; assay type: cell-based; conditions: for IC50: H630-R10, tumor - colon, 5-FU resistant, high TS, 72 hour incubation; for normal/tumor IC50 ratio: normal IC50 = average of CCD18co and Det551
# Description: as §4, §5
# SW527P = experiment: Cyquant and crystal violet cytotoxicity; assay type: cell-based; conditions: tumor - breast, parental control, 72 hour incubation
# Description: as §4, §5
# Det 551 = experiment: Cyquant and crystal violet cytotoxicity; assay type: cell-based; conditions: for IC50: Det 551, normal embryonic skin, 72 hour incubation
# Description: as §4, §5
# SW527TDX = experiment: Cyquant and crystal violet cytotoxicity; assay type: cell-based; conditions: for normal/tumor IC50 ratio: normal IC50 = average of CCD18co and Det551; for IC50: tumor - breast, TDX resistant, high TS, 72 hour incubation
# Description: as §4, §5
# SKBR3 V = experiment: Cyquant and crystal violet cytotoxicity; assay type: cell-based; conditions: vector control, low TS, 72 hour incubation
# Description: as §4, §5
# MCF7 TDX [4] = experiment: Cyquant and crystal violet cytotoxicity; assay type: cell-based; conditions: for IC50: tumor - breast, TDX resistant, high TS, 72 hour incubation; for normal/tumor IC50 ratio: normal IC50 = average of CCD18co and Det551
# Description: as §4, §5
# SKBR3 #52 = experiment: Cyquant and crystal violet cytotoxicity; assay type: cell-based; conditions: for IC50: SKBR3 #52, tumor - breast, high TS transfectant, 72 hour incubation; for normal/tumor IC50 ratio: normal IC50 = average of CCD18co and Det551
# Description: as §4, §5
# MCF7 = experiment: Cyquant and crystal violet cytotoxicity; assay type: cell-based; conditions: for IC50: MCF7, tumor - breast, parental control, 72 hour incubation; for normal/tumor IC50 ratio: normal IC50 = average of CCD18co and Det551
# Description: as §4, §5
structure (smiles),measurement,setting,value
"C[C@H](NP(=O)(OC[C@H]1O[C@@H](n2cc(/C=C/Br)c(=O)[nH]c2=O)C[C@@H]1O)Oc1ccccc1)C(=O)O (stereo partly drawn) [NB1011, reference compound]",IC50,H630 R10 [1],57 µM
same,IC50,"MCF7 TDX [2]; drug exposure 120 hours, Tomudex resistant breast tumor cell line",0.13 µM
"O=c1[nH]c(=O)n([C@H]2C[C@H](O)[C@@H](CO)O2)cc1/C=C/Br [BVdU, (E)-5-(2-bromovinyl)-2′-deoxyuridine]",sensitivity of H630 R10 (in words),H630 R10 [3],insensitive
same,IC50,TKC HT1080 #5,275 µM
same,IC50,TKC HT1080 #22,162 µM
same,IC50,PC HT1080,303 µM
same,IC50,"TS HT1080 #12; Homo sapiens, HT-1080",5.7 ± 1.8 µM
same,times the 5-FU normal/tumor ratio,TS HT1080 #12; TS HT1080 #12,961 times
same,normal/tumor IC50 ratio,TS HT1080 #12; TS HT1080 #12,615
same,IC50,"CCD18co; Homo sapiens, CCD-18Co",4820 ± 128 µM
same,anti-proliferative effect (in words),"CCD18co; normal cell strain representing colon, even high concentrations",not affected
same,times the 5-FU normal/tumor ratio,H630-R10; H630-R10,42 times
same,IC50,H630-R10,561 ± 157 µM
same,normal/tumor IC50 ratio,H630-R10; H630-R10,6.3
same,IC50,SW527P,> 1000 µM
same,IC50,Det 551,2190 ± 682 µM
same,anti-proliferative effect (in words),"Det 551; normal cell strain representing skin, even high concentrations",not affected
same,times the 5-FU normal/tumor ratio,SW527TDX,"5,000 times"
same,normal/tumor IC50 ratio,SW527TDX,540
same,IC50,SW527TDX,6.5 µM
same,IC50,"SKBR3 V; Homo sapiens, SK-BR-3, tumor - breast",> 1000 µM
same,times the 5-FU normal/tumor ratio,MCF7 TDX [4],"18,000 times"
same,IC50,MCF7 TDX [4]; Homo sapiens,0.6 ± 0.5 µM
same,normal/tumor IC50 ratio,MCF7 TDX [4],5847
same,IC50,"SKBR3 #52; Homo sapiens, SK-BR-3",8.3 µM
same,times the 5-FU normal/tumor ratio,SKBR3 #52; SKBR3 #52,"2,000 times"
same,normal/tumor IC50 ratio,SKBR3 #52; SKBR3 #52,423
same,IC50,MCF7; Homo sapiens,1250 µM
same,selectivity relative to 5-FU,MCF7; MCF7,more than ten times as selective as 5-FU
same,normal/tumor IC50 ratio,MCF7; MCF7,2.8
same,fold less active than NB1011,"H630 R10 [1]; H630R10 cells, from IC50",~6 fold
same,IC50,"H630 R10 [1]; Homo sapiens, NCI-H630",303 µM
same,IC50,"MCF7 TDX [2]; Homo sapiens, MCF7, Tomudex resistant breast cancer cell line",0.005 µM
same,IC50,"MCF7 TDX [2]; Homo sapiens, MCF7, drug exposure 120 hours, Tomudex resistant breast tumor cell line",0.005 µM
same,fold more active than NB1011,"MCF7 TDX [2]; MCF7 TDX cells, from IC50",~25 fold
"O=c1[nH]cc(F)c(=O)[nH]1 [5-FU, reference compound]",IC50,TS HT1080 #12,3.5 ± 0.2 µM
same,normal/tumor IC50 ratio,TS HT1080 #12; TS HT1080 #12,0.64
same,IC50,CCD18co,1.4 ± 0.4 µM
same,IC50,H630-R10,143 ± 5.9 µM
same,normal/tumor IC50 ratio,H630-R10; H630-R10,0.15
same,IC50,SW527P,9.1 ± 1.3 µM
same,IC50,Det 551,3.1 ± 0.5 µM
same,normal/tumor IC50 ratio,SW527TDX,0.11
same,IC50,SW527TDX,20.4 ± 9.9 µM
same,IC50,SKBR3 V; tumor - breast,7.4 ± 2.4 µM
same,normal/tumor IC50 ratio,MCF7 TDX [4],0.33
same,IC50,MCF7 TDX [4],6.7 ± 2 µM
same,IC50,SKBR3 #52,9.1 ± 1.6 µM
same,normal/tumor IC50 ratio,SKBR3 #52; SKBR3 #52,0.24
same,IC50,MCF7,8.8 ± 5.9 µM
same,normal/tumor IC50 ratio,MCF7; MCF7,0.25
